Consider one molecule from article PMC6768323, “Adverse Maternal, Fetal, and Postnatal Effects of Hexafluoropropylene Oxide Dimer Acid (GenX) from Oral Gestational Exposure in Sprague-Dawley Rats” (Environmental Health Perspectives, 2019).

The target in one data set is T1, human GR (Homo sapiens, UniProt P04150).
T1 construct: expressed in transfected cells; host or cells: CV-1 cells (ATCC CCL-70), adenoviral transduction
T1 sequence (P04150 1-777): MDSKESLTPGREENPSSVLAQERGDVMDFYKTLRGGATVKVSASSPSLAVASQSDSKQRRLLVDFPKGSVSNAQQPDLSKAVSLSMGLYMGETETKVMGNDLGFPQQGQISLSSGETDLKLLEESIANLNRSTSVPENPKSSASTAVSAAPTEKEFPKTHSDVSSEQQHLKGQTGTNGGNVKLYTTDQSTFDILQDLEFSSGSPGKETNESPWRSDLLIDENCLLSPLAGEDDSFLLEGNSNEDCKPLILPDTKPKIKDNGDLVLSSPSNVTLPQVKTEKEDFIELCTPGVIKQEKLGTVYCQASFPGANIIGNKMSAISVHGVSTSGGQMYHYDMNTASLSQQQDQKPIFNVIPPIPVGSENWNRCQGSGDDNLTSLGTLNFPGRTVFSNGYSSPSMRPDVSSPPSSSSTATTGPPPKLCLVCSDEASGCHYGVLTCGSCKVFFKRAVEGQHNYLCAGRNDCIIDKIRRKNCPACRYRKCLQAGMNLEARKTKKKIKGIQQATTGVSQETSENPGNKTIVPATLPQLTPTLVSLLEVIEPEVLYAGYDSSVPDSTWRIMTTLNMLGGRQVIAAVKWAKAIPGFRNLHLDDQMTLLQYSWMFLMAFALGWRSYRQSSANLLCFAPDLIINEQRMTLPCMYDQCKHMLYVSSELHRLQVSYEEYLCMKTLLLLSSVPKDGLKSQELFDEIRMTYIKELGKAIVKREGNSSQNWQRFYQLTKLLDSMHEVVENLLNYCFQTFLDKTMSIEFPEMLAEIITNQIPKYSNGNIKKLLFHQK
The data set is described as follows: GR transcriptional activation, CV-1 cells. Format: cell-based. Here is the method: HFPO-DA was assessed for agonism and antagonism of transcriptional activation for estrogen (ER), androgen (AR), and glucocorticoid receptors (GR). Method details for in vitro transactivation assays for ER ([Wilson et al. 2004a]), AR ([Hartig et al. 2002], [2007]), and GR ([Conley et al. 2017]; [Medlock Kakaley et al. 2018]) have been previously reported. Briefly, for ER activity we utilized the stably transfected T47D-KBluc cell line [publicly available via American Type Culture Collection (ATCC); CRL-2865] according to protocols provided by ATCC with the modification of Dulbecco’s Modified Eagle Media (DMEM) as the cell culture media instead of Roswell Park Memorial Institute (RPMI) media. […] All assays were run in 96-well plates and luminescence was detected using a BMG Fluostar Omega luminometer (BMG Labtech) following 24-h exposure. […] Cellular cytotoxicity across the dosing range was determined for CV-1 cells utilizing the 3-(4,5-dimethylthiazol-2-yl)-2,5-diphenyltetrazolium bromide (MTT) dye ([Mosmann 1983]). HFPO-DA was analyzed using n=2–3 biological replicate assay plates (i.e., unique cell passages) with four technical replicates per treatment per plate. […]

On the set-up of data set [1]: method as in DuPont 2017. The settings on record: ref DuPont 2017; cited from earlier work.

As to `O=C(O)C(F)(OC(F)(F)C(F)(F)C(F)(F)F)C(F)(F)F` (stereo not drawn) [HFPO-DA, Hexafluoropropylene oxide dimer acid], on human GR (100 pM to 100 μM), the glucocorticoid receptor agonism entry is given as “no androgen or glucocorticoid receptor agonism”. Also, the “glucocorticoid receptor antagonism, reduction in luciferase expression” value on human GR (100 μM, versus 1 nM Dex) is reported as 28±3%. Further, the “highest detected plasma concentration from a worker” value in data set [1] is 0.169 µg/mL.
